Test results as given in US20140094413A1, “HEPATOCYTE GROWTH FACTOR (HGF) MIMICS AS THERAPEUTIC AGENTS” (WASHINGTON STATE UNIVERSITY, priority 2012, published 2014).
Values joined by “and” are separate entries in the source; they are usually repeats but may differ in a detail not shown here. Equal entries are not always repeated. Where a SMILES comes first, the peptide text is derived from it. [ ]: non-standard residue; d: D form. The star is where a group is joined. Nle = CCCC[C@H](N)C(=O)O; Hexanoyl = CCCCCC(=O)*; Ahx = NCCCCCC(=O)O

Experiments:
hippocampal neurons = experiment: Spinogenesis in mRFP-β-actin transfected dissociated hippocampal neurons; assay type: cell-based, rat; settings: for Spine numbers (spinogenesis) vs vehicle: 1 μM as printed in FIG. 34 legend; for Number of spines per 50 μm dendrite length: 10^−10 M; for Increase in the number of spines vs vehicle: 5 day treatment; for Spine density, dose dependence: 5 day stimulation, wide range of concentrations
Description: (§1) Hippocampal neurons (2×10^5 cells per square cm) were cultured from P1 Sprague Dawley rats on plates coated with poly-L-lysine from Sigma (St. Louis, Mo.; molecular weight 300,000). Hippocampal neurons were maintained in Neurobasal A media from Invitrogen (Carlsbad, Calif.) supplemented with B27 from Invitrogen, 0.5 mM L-glutamine, and […] cytosine-D-arabinofuranoside from Sigma added at 2 days in vitro. Hippocampal neurons were then cultured a further 3-7 days, at which time they were either transfected or treated with various pharmacological reagents as described in (Wayman, Davare et al. 2008).
(§2) Neurons were transfected with mRFP-β-actin on day in vitro 6 (DIV6) using LipofectAMINE™ 2000 (Invitrogen) according to the manufacturer's protocol. This protocol yielded the desired 3-5% transfection efficiency thus enabling the visualization of individual neurons. Higher efficiencies obscured the dendritic arbor of individual neurons. Expression of fluorescently tagged actin allowed clear visualization of dendritic spines, as dendritic spines are enriched in actin. […] On DIV 12 the neurons were fixed (4% paraformaldehyde, 3% sucrose, 60 mM PIPES, 25 mM HEPES, 5 mM EGTA, 1 mM MgCl2, pH 7.4) for 20 min at room temperature and mounted. Slides were dried for at least 20 hours at 4° C. and fluorescent images were obtained with Slidebook 4.2 Digital Microscopy Software driving an Olympus IX81 inverted confocal microscope with a 60× oil immersion lens, NA 1.4 and resolution 0.280 μm Dendritic spine density was measured on primary and secondary dendrites at a distance of at least 150 μm from the soma. Five 50 μm long segments of dendrite from at least 10 neurons per data point were analyzed for each data point reported. Each experiment was repeated at least three times using independent culture preparations. Dendrite length was determined using the National Institutes of Health's Image J 1.41o program (NIH, Bethesda, Md.) and the neurite tracing program Neuron J (Meijering, Jacob et al. 2004) Spines were manually counted.
as §1, with “centimeter)” for “cm)”, “P1-2” for “P1”, “the text or figure legends.” for “(Wayman, Davare et al. 2008).”
as §2, with “DIV12” for “DIV 12”, “Dendrite length was determined using the National Institutes of Health's Image J 1.41o program (NIH, Bethesda, Md.) and the neurite tracing program Neuron J (Meijering, Jacob et al. 2004) Spines were manually counted.” left out

[1] = test system: hippocampal neurons transfected with shMet; experiment: Spinogenesis after c-Met knock-down with shRNA; assay type: cell-based, rat; settings: HGF 10 ng/ml, 48 hours
Text: Neurons were transfected with mRFP-β-actin on day in vitro 6 (DIV6) using LipofectAMINE™ 2000 (Invitrogen) according to the manufacturer's protocol. This protocol yielded the desired 3-5% transfection efficiency thus enabling the visualization of individual neurons. Higher efficiencies obscured the dendritic arbor of individual neurons. Expression of fluorescently tagged actin allowed clear visualization of dendritic spines, as dendritic spines are enriched in actin. On DIV7 the cells were treated with vehicle (H20) or peptides (as described in the text) added to media. On DIV12 the neurons were fixed (4% paraformaldehyde, 3% sucrose, 60 mM PIPES, 25 mM HEPES, 5 mM EGTA, 1 mM MgCl2, pH 7.4) for 20 min at room temperature and mounted. Slides were dried for at least 20 hours at 4° C. and fluorescent images were obtained with Slidebook 4.2 Digital Microscopy Software driving an Olympus IX81 inverted confocal microscope with a 60× oil immersion lens, NA 1.4 and resolution 0.280 μm Dendritic spine density was measured on primary and secondary dendrites at a distance of at least 150 μm from the soma. Five 50 μm long segments of dendrite from at least 10 neurons per data point were analyzed for each data point reported. Each experiment was repeated at least three times using independent culture preparations. Dendrite length was determined using the National Institutes of Health's Image J 1.41o program (NIH, Bethesda, Md.) and the neurite tracing program Neuron J (Meijering, Jacob et al. 2004) Spines were manually counted.
A target sequence for c-Met was designed using RNAi central design program (see the website located at cancan.cshl.edu/). […]. The shRNA was transfected into cells using the lipofectamine method described above. Verification of receptor knockdown was done by creating a c-Met-6-Myc tagged gene product using the Gateway cloning system (Invitrogen). The Met protein coding sequence was cloned from rat whole brain cDNA using primers obtained from Integrated DNA Technologies, Inc. The amplified product was gel purified and a band corresponding to […] band excised and cloned into a PCAGGS-6-Myc destination vector (Gateway).
To irrefutably confirm that the AngIV analogues act via the HGF/c-met system an shRNA for c-Met was employed to knock-down the receptor. Dissociated hippocampal neurons were transfected with mRFP-β-actin and shMet RNA and receptor knock-down was allowed to take place for 48 hours prior to stimulating with 0.5 μg (per well) HGF (10 ng/ml), Dihexa or Nle1-AngIV (both at 10^−12M). Longer exposure appeared to be detrimental or toxic to the neurons. Effective c-Met receptor knock-down was verified by transfecting human embryonic kidney (HEK) cells with (0.1 μg) 6-Myc-tagged c-Met, (0.1 μg) shMet or mRFP-β-actin alone. Successful knockdown was confirmed by immunoblotting for Myc tagged c-met using an anti-Myc antibody (FIG. 19).

[2] = 10^−12 M, acute 30 minute application on DIV 12
[3] = neurons transfected with mRFP-β-actin alone, Dihexa or Nle1-AngIV 10^−12M
[4] = neurons transfected with mRFP-β-actin and shMet, Dihexa or Nle1-AngIV 10^−12 M

| Molecule | Concentration active in stimulating synaptogenesis (hippocampal neurons) | Spine numbers (spinogenesis) vs vehicle (hippocampal neurons) | Number of spines per 50 μm dendrite length (hippocampal neurons; 5 days) | Average spine head width (hippocampal neurons; 10^−12 M) [μm] | Increase in the number of spines vs vehicle (hippocampal neurons; 10^−12 M) | Mean spine numbers per 50 μm dendrite length (hippocampal neurons; [2]) | Spine density, dose dependence (hippocampal neurons) | Mean spine numbers per 50 μm dendrite length [1, 3] | Mean spine numbers per 50 μm dendrite length [1, 4] | Mean spine numbers per 50 μm dendrite length (hippocampal neurons; HGF 2.5 ng/ml (sub-threshold), 5 days) | Mean spine numbers per 50 μm dendrite length (hippocampal neurons; HGF 5 ng/ml, 5 days) | Mean spine numbers per 50 μm dendrite length (hippocampal neurons; HGF 10 ng/ml, 5 days) | Mean spine numbers per 50 μm dendrite length (hippocampal neurons; HGF 20 ng/ml, 5 days) |
| --- | --- | --- | --- | --- | --- | --- | --- | --- | --- | --- | --- | --- | --- |
| CCCCCC(=O)N[C@@H](Cc1ccc(O)cc1)C(=O)N[C@H](C(=O)NCCCCCC(N)=O)[C@@H](C)CC [Dihexa, N-hexanoic-Tyr-Ile-(6)-aminohexanoic amide] (Hexanoyl-Tyr-Ile-[Ahx]-NH2) | 10^−12 M | dramatic increase in spine numbers | 11 spines per 50 μm dendrite length | 0.80 | ~3 fold | 23.9 spines per 50 μm dendrite length | dose-dependently stimulate spinogenesis | 21.8 spines per 50 μm dendrite leng | 12.0 spines per 50 μm dendrite leng | – | – | – | – |
| CCCC[C@H](N)C(=O)N[C@@H](Cc1ccc(O)cc1)C(=O)N[C@H](C(=O)N[C@@H](Cc1c[nH]cn1)C(=O)N1CCC[C@H]1C(=O)N[C@@H](Cc1ccccc1)C(=O)O)[C@@H](C)CC [Nle1-AngIV, reference compound] (H-[Nle]YIHPF-OH; N-terminus and C-terminus assumed) | – | dramatic increase in spine numbers | 22 spines per 50 μm dendrite length | 0.87 | greater than 2 fold | 2.6 spines per 50 μm dendrite length | dose-dependently stimulate spinogenesis | 20.0 spines per 50 μm dendrite leng | 12.1 spines per 50 μm dendrite leng | – | – | – | – |
| HGF: Hepatocyte growth factor, recombinant, purchased from R&D Systems | – | – | – | – | – | – | – | 20.6 spines per 50 μm dendrite leng | 12.4 spines per 50 μm dendrite leng | 18.6 spines per 50 μm dendrite leng and 16.5 spines per 50 μm dendrite leng | 24.7 spines per 50 μm dendrite leng | 27.5 spines per 50 μm dendrite leng and 29.3 spines per 50 μm dendrite leng | 27.0 spines per 50 μm dendrite leng |
